Results from PubChem BioAssay AID489027 (Sanford-Burnham Center for Chemical Genomics, 2010).
The source made the active and inactive calls. The rule behind the calls is not given here.

These compounds were tested against UPR counterscreen luciferase reporter, luminescence (assay: activators in UPR counterscreen luciferase reporter, dose response, counter-screen for adaptive UPR activator project, cell-based, luminescence (AID 489027)).
With `CCC(=O)Nc1nnc(SCC(=O)c2ccc3c(c2)Cc2ccccc2-3)s1` the EC50 was “inactive”. Compound `COc1cc(/C=C(\C#N)c2nc3ccccc3[nH]2)cc(Br)c1OCc1ccc(F)cc1` has an EC50 of 15.3 µM. With `COc1ccccc1-c1cc(-c2ccccc2)nc(SC(C(N)=O)c2ccccc2)c1C#N` (stereo unspecified) the EC50 was > 80 µM (inactive). For `COc1cccc2sc(N3CCN(c4nc5ccccc5s4)CC3)nc12`, the EC50 was 16.8 µM. `Cc1ccc2c(c1)C(c1ccc([N+](=O)[O-])cc1)=NNC(c1ccc(Br)cc1)=N2` was tested, and the EC50 was > 80 µM (inactive). For `Cc1ccc2c(c1)C(c1ccc(N3CCOCC3)cc1)=NNC(c1cccs1)=N2`, the EC50 was “inactive”. With `Cc1ccc(CN2C(=O)C(=O)c3cc(C)ccc32)cc1` the EC50 was “inactive”. `O=c1cc(C(Cl)(Cl)Cl)oc2c1ccc1ccccc12` was tested, and the EC50 was > 80 µM (inactive). For `Cc1nn(-c2ccccc2)c(C)c1/C=N/NC(=O)CSc1nc2ccccc2c(=O)n1-c1ccc(Br)cc1`, the EC50 was 7.19 µM. With `NC1=NC[C@@H](CC2CCCCC2)N1CCc1cc(C(F)(F)F)cc(C(F)(F)F)c1` the EC50 was > 80 µM (inactive). `O=c1[nH]c(-c2ccc(-c3cccc(Cl)c3)o2)nc2ccccc12` gave an EC50 of 11.9 µM. In the case of `Cc1ccc(Nc2nc(-c3c(C)nc4ccccn34)cs2)cc1`, the EC50 is reported as > 80 µM (inactive). In the case of `O=C(/C=C/c1ccccc1)NC(NC(=S)Nc1cccc(Cl)c1)C(Cl)(Cl)Cl` (stereo unspecified), the EC50 is reported as > 80 µM (inactive). For `Cc1nc(NC(=O)c2cc3c(C)nn(-c4ccccc4)c3s2)sc1C(=O)Nc1ccccc1`, the EC50 was “inactive”. `CN(C)S(=O)(=O)c1ccc(N2CCCC2)c(C(=O)Nc2nc3ccccc3s2)c1` gave an EC50 of 12.7 µM. With `CCC(=O)Nc1cccc(C(=O)/C=C/c2ccc(F)cc2)c1` the EC50 was 12.1 µM. In the case of `COc1cc(/C=N/Nc2nc(Nc3ccc(C)cc3)nc(-n3nc(C)cc3C)n2)cc(OC)c1OC`, the EC50 is reported as > 80 µM (inactive). With `Cc1cc(N2CCN(c3nc(-c4ccc([N+](=O)[O-])cc4)cs3)CC2)c2ccccc2n1` the EC50 was 15.2 µM. In the case of `Clc1ccc(-c2ccc(/C=N/Nc3nncc(-c4ccccc4)n3)o2)cc1`, the EC50 is reported as 13.6 µM. For `Cc1ccc(-c2nnc(-c3ccc(NC(=O)Cc4cccs4)cc3)o2)cc1`, the EC50 was > 80 µM (inactive). `Cc1cc(NC(=O)c2cncc(Br)c2)ccc1NC(=O)c1cc2ccccc2o1` was tested, and the EC50 was > 80 µM (inactive). `O=C(Nc1ccc(O)c(-c2nc3ccccc3s2)c1)c1cc(=O)c2ccccc2o1` was tested, and the EC50 was > 80 µM (inactive). `C#CCOCCOCCOCCNc1nc(N2CCN(C(=O)CCCCCCCCCCNC(=O)[C@H](CCCCN)n3cc(C[C@@H](C)CC)nn3)CC2)nc(N2CCN(C(=O)CCCCCCCCCCNC(=O)[C@H](CCCN=C(N)N)n3cc(C[C@@H](C)CC)nn3)CC2)n1` was tested, and the EC50 was > 80 µM (inactive). For `Cc1cnc(NC(=O)c2cc(S(=O)(=O)N(C)C)ccc2N2CCCC2)s1`, the EC50 was 4.67 µM. `O=C(COC(=O)/C=C/c1cn(-c2ccccc2)nc1-c1cccnc1)Nc1ccc(Cl)cc1Cl` showed an EC50 of 14.3 µM. `Cc1nn(Cc2c(Cl)cccc2Cl)c(C)c1NC(=O)c1cn(-c2ccccc2)nc1-c1ccccc1` gave an EC50 of 3.67 µM. For `CC1(C)CC(=O)C(C=Nc2ccc(C(=O)c3ccccc3)cc2N=CC2=C(O)CC(C)(C)CC2=O)=C(O)C1`, the EC50 was 9.78 µM. For `COc1ccc(CNC(=O)/C(C#N)=C/c2cccc(OC)c2OC)cc1`, the EC50 was “inactive”. `CC(=O)Oc1ccc(-c2ccc(C(=O)OCC(=O)N(C)CC(=O)Nc3ccccc3Cl)cc2)cc1` gave an EC50 of 3.02 µM. `CCN(CC)c1ccc(N=Cc2c(O)n(Cc3ccccc3)c(=O)[nH]c2=O)cc1` was tested, and the EC50 was “inactive”. In the case of `CCOc1ccc(Cn2c3ccc(OC)cc3c3nc4ccccc4nc32)cc1OC`, the EC50 is reported as “inactive”. `C/C(=N/NC(=O)c1ccc(C)s1)c1cccc(NC(=O)COc2ccc(Cl)cc2C)c1` showed an EC50 of 20 µM. Work on `O=[N+]([O-])c1ccc(N/N=C/c2cccc(O)c2O)c(S(=O)(=O)N2CCOCC2)c1` yielded an EC50 of 7.48 µM. In the case of `CCC(C)Nc1nc(N)c([N+](=O)[O-])c(NC2CCCCC2)n1` (stereo unspecified), the EC50 is reported as “inactive”. `Oc1ccc(Br)cc1/C=N/Nc1ccccn1` was tested, and the EC50 was > 80 µM (inactive). For `CCc1cc2c(=O)c(-c3cnn(-c4ccccc4)c3)c(C)oc2cc1OCC(=O)Nc1cccc(C)c1`, the EC50 was 11.5 µM.
